The supplement of paper PMC10307832

Legend:
Assay in all cases: relative viability (nuclei count vs DMSO), 5 days (fraction); higher = more cells survive
[1] = compound: C[C@]1(O)C[C@@H](c2nc(-c3ccc4ccc(-c5ccccc5)nc4c3)c3c(N)nccn32)C1 [Linsitinib] + COc1cccc2cc(-c3nc([C@H]4CC[C@H](C(=O)O)CC4)n4ncnc(N)c34)[nH]c12 [OSI-027] (partner 0.5 µM)
Outline: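 Relative viability divides the nuclei count in treated wells by that in vehicle wells. Lung cancer cell lines were seeded in 1536-well plates, dosed by pin tool the next day, and fixed and stained after 5 days in one step with final 0.05% Triton X-100, 1% formaldehyde and 1 ug/ml Hoechst. Dosing was a single drug or a fixed anchor-drug dose plus five library-drug doses (not always all listed) in √10 steps, and values are medians of duplicate plates imaged at 4×.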

[2] = compound: Cc1ccc(C(=O)N(CCCN)[C@@H](c2nc3cc(Cl)ccc3c(=O)n2Cc2ccccc2)C(C)C)cc1 [Ispinesib]
Outline: (§1)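 Only plates meeting two conditions passed: control CV below 25% and at least one doubling. Lung cancer cell lines, kept overnight at 37 °C in 1536-well plates, were pinned with five library-drug doses (not always all listed) √10 apart on vehicle-anchored plates and grown 5 days without medium change. A one-step fix, permeabilisation and Hoechst stain preceded 4× imaging and MetaXpress nuclear counting. Viability equals treated-well nuclei divided by vehicle-well nuclei, as the median over plates.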

[3] = compound: C[C@]1(O)C[C@@H](c2nc(-c3ccc4ccc(-c5ccccc5)nc4c3)c3c(N)nccn32)C1 [Linsitinib]
Outline: as §1

| Cell Line | relative viability ([1]; first compound 0.01 µM) | relative viability ([1]; first compound 0.03162 µM) | relative viability ([1]; first compound 0.1 µM) | relative viability ([1]; first compound 0.3162 µM) | relative viability ([1]; first compound 1 µM) | relative viability ([2]; 0.001 µM) | relative viability ([2]; 0.003162 µM) | relative viability ([2]; 0.01 µM) | relative viability ([2]; 0.03162 µM) | relative viability ([2]; 0.1 µM) | relative viability ([3]; 0.01 µM) | relative viability ([3]; 0.03162 µM) | relative viability ([3]; 0.1 µM) | relative viability ([3]; 0.3162 µM) | relative viability ([3]; 1 µM) | relative viability ([3]; 1 µM, anchor plate) |
| --- | --- | --- | --- | --- | --- | --- | --- | --- | --- | --- | --- | --- | --- | --- | --- | --- |
| NCI-H596 | 0.7 | 0.694 | 0.802 | 0.674 | 0.448 | 0.993 | 0.933 | 1.03 | 0.999 | 0.444 | 1.04 | 0.942 | 0.998 | 0.933 | 0.886 | 1.06 |
| NCI-H460 | 0.736 | 0.646 | 0.701 | 0.507 | 0.304 | 1.03 | 1.03 | 1.14 | 0.935 | 0.0826 | 0.966 | 0.927 | 0.977 | 0.872 | 0.949 | 0.789 |
| NCI-H647 | 0.679 | 0.658 | 0.582 | – | 0.428 | 0.995 | 1.05 | 1.18 | 0.188 | 0.153 | 0.968 | 0.881 | 1.03 | – | 0.859 | 1.18 |
| NCI-H838 | 0.323 | 0.42 | 0.312 | – | 0.189 | 1.05 | 1.03 | 1.08 | 0.747 | 0.343 | 0.975 | 0.905 | 0.906 | 0.493 | 0.667 | 1.06 |
| PC-14 | 0.746 | 0.706 | 0.798 | 0.568 | 0.546 | 1.06 | 1.09 | 0.898 | 0.404 | 0.121 | 0.963 | 0.929 | 0.981 | 0.895 | 0.867 | 0.959 |
| NCI-H358 | 0.781 | 0.928 | 0.68 | 0.421 | 0.246 | 1.15 | 1 | 1 | 0.528 | 0.313 | 0.86 | 0.978 | 0.9 | 0.809 | 0.522 | 0.749 |
| NCI-H1915 | 0.646 | 0.678 | 0.623 | 0.515 | 0.392 | 0.971 | 1.09 | 1.02 | 0.451 | 0.209 | 1.02 | 1.04 | 1.01 | 0.828 | 0.684 | 1.07 |
| 201T | 0.808 | 0.799 | 1.01 | 0.829 | 0.342 | 0.978 | 1.05 | 1.03 | 0.786 | 0.367 | 0.988 | 0.989 | 1.01 | 0.967 | 0.911 | 1.03 |
| NCI-H1437 | 0.874 | 0.885 | 1.02 | 0.853 | 0.893 | 1.07 | 1.11 | 1.14 | 0.995 | 0.247 | 1.01 | 0.963 | 0.997 | 0.945 | 1.01 | 1.02 |
| A-427 | 0.448 | 0.432 | 0.5 | – | 0.357 | 1.05 | 1.11 | 0.955 | 0.261 | 0.246 | 1.02 | 1.11 | 0.985 | – | 0.858 | 1.13 |
| HCC-366 | 1.03 | 0.999 | 0.888 | 0.821 | 0.235 | 1.03 | 1.03 | 1.08 | 0.935 | 0.0315 | 1 | 0.989 | 0.925 | 0.917 | 0.938 | 0.658 |
| BEN | 0.346 | 0.27 | 0.258 | – | 0.249 | 1.12 | 1.1 | 0.983 | 0.647 | 0.378 | 0.945 | 0.948 | 0.832 | 0.657 | 0.933 | 0.935 |
| NCI-H2347 | 0.36 | 0.517 | 0.261 | – | 0.356 | 1.03 | 1.1 | 1.13 | 0.897 | 0.87 | 1.09 | 1.19 | 0.981 | 0.805 | 0.942 | 0.935 |
| LCLC-103H | 0.44 | 0.475 | 0.42 | 0.356 | 0.367 | 1.05 | 1.07 | 1.04 | 0.691 | 0.601 | 1.01 | 0.89 | 0.976 | 0.823 | 0.879 | 1.06 |
| NCI-H650 | 0.524 | 0.527 | 0.541 | 0.256 | 0.27 | 1.01 | 1.14 | 1.02 | 0.629 | 0.212 | 0.889 | 0.996 | 0.875 | – | 0.783 | 0.914 |
| NCI-H1975 | 0.68 | 0.738 | 0.722 | 0.544 | 0.347 | 1 | 0.952 | 1 | 0.742 | 0.184 | 0.939 | 0.927 | 0.869 | 0.835 | 0.775 | 0.984 |
| NCI-H2126 | 0.671 | 0.909 | 0.596 | 0.478 | 0.358 | 0.978 | 1.08 | 1.06 | 0.992 | 0.564 | 1.01 | 0.971 | 1 | 0.818 | 0.71 | 0.715 |
| NCI-H2087 | 0.691 | 0.582 | 0.463 | 0.362 | 0.182 | 1.01 | 1.03 | 1.23 | 0.335 | 0.137 | 1.07 | 1.04 | 1.13 | 0.615 | 0.683 | 0.908 |
